24 molecules from US6583180B2, “Glucocorticoid receptor modulators” (Abbott Laboratories, priority 2001, dated 2003) can be followed below.

One may read the inhibition as the change of the read-out against control, counted positive when it falls.

The assay addresses T1, Human glucocorticoid receptors (Homo sapiens, UniProt P04150).
T1 construct: made in house; host or cells: Sf9 insect cells, recombinant baculovirus (BAC-TO-BAC)
T1 sequence (P04150 1-777): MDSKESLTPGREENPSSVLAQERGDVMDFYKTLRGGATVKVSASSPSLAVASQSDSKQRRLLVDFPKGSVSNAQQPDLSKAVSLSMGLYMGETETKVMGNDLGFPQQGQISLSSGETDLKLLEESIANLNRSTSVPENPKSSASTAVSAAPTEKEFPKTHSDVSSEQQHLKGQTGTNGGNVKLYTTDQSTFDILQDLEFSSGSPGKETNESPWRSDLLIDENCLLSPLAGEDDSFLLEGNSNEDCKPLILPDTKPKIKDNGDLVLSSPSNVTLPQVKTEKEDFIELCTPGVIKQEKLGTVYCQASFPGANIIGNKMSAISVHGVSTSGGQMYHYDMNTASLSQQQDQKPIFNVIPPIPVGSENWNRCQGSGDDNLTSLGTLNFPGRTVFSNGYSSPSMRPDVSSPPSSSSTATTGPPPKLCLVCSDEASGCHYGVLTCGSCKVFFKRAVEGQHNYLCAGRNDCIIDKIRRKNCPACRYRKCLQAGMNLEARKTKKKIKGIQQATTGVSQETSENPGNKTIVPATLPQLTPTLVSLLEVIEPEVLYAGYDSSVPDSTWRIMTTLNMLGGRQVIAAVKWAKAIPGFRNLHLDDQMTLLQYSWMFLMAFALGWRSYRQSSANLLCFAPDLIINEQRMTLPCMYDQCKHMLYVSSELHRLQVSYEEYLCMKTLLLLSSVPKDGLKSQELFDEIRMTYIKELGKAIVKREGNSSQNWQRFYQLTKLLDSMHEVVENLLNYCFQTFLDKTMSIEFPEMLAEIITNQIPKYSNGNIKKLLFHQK
The assay is described as follows: Radioligand filter binding assay, displacement of 3[H]-dexamethasone from hGR. Conditions: read-out: GR Binding (% Inhibition at 1.7 μM). From the text:
Dexamethasone hereafter referred to as dex was purchased from SIGMA. […] Human glucocorticoid receptors were extracted from Sf9 cells infected with a recombinant baculovirus transfer vector containing the cloned hGR genes. Recombinant baculovirus was generated utilizing the BAC-TO-BAC expression system (Life Technologies) in accordance to instruction from the supplier. The hGR coding sequences were cloned into a baculovirus transfer vector by standard techniques. The recombinant baculoviruses expressing hGR were amplified and used to infect Sf9 cells. Infected cells were harvested 48 hrs post infection. […] The concentration of hGR in the extract was measured as specific ^3[H]-dex binding with the G25-assay as described in J. Steroid Biochem. Molec. […] The extract was aliquoted and stored at −70° C.
The filter binding assay: Dilution series of the test compounds and dex as reference were made from 10 mM (1 mM dex) stock solutions in DMSO. 10 μl of the dilutions was added in duplicates to the wells. The cell extracts were diluted 10 fold in EPMo+MTG buffer (1 mM EDTA, HPO4 20 mM (pH8), 6 mM MTG). […] 110 μl of the diluted ^3[H]-dex were added to the wells. The final concentration of hGR in the experiment was estimated to 1 nM. All preparations were made in […] on ice and with +4° C. temperated buffers. The plates were incubated over night at +4° C. (15-20 hours).
The incubation was stopped by filtration through GF/B filter on the Tomtec Cellharvester. The filtration on the Tomtec Cellharvester was programmed as follows: 1) Preparation before filtration with EP buffer (1 mM EDTA 20 mM HPO4 (pH8)) 2×[Wash/Asp 0.6 sec., Asp 0.5 sec.]; 2) Prewet of GF/B filter with EP+PEI buffer (EP buffer, 0.3% Polyethylenimine) [Asp 0.8 sec.]; 3) Filtration/harvesting of the 96-well incubation plate 3×[Wash/Asp 0.6 sec., Asp 0.5 sec.]. The GF/B filter was dried for at least 1 hour at 65° C. A MeltiLex scintillation wax was melted onto the filter with the Microsealer. The filter was placed in a samplebag, which was thereafter trimmed with scissors to fit the filter cassette. The cassette were placed in the Microbeta and measured for 1 min/position, returning ccpm (corrected counts per minute).
b=((bmax−bmin)/(1+(I/IC50)^S))+bminI
The Microbeta-instrument generates the mean cpm (counts per minute) value/minute and corrects for individual variations between the detectors thus generating corrected cpm values.
For the molecule `Cc1c(NS(=O)(=O)N(C)C)cccc1N(Cc1ccccc1)Cc1ccccc1` [Example 5, N′-[3-(dibenzylamino)-2-methylphenyl]-N,N-dimethylsulfamide], the inhibition at 1.7 µM was found to be 75.2%.

Consider `Cc1c(NS(C)(=O)=O)cccc1N(Cc1ccccc1)Cc1ccc([N+](=O)[O-])cc1` [Example 8, N-{3-[benzyl(4-nitrobenzyl)amino]-2-methylphenyl}methanesulfonamide], for which the inhibition at 1.7 µM amounted to 75.9%.

As for `Cc1c(NS(C)(=O)=O)cccc1N(Cc1ccccc1)Cc1ccc2c(c1)OCO2` [Example 15, N-{3-[(1,3-benzodioxol-5-ylmethyl)(benzyl)amino]-2-methylphenyl}methanesulfonamide], the inhibition at 1.7 µM worked out at 77.9%.

For the molecule `Cc1c(NS(C)(=O)=O)cccc1N(Cc1ccccc1)Cc1ccc2c(c1)OCCO2` [Example 16, N-{3-[benzyl(2,3-dihydro-1,4-benzodioxin-6-ylmethyl)amino]-2-methylphenyl}methanesulfonamide], the inhibition at 1.7 µM was 75.6%.

For the molecule `COc1ccc(CN(Cc2ccccc2C#N)c2cccc(NS(C)(=O)=O)c2C)c(F)c1` [Example 21, N-{3-[(2-cyanobenzyl)(2-fluoro-4-methoxybenzyl)amino]-2-methylphenyl}methanesulfonamide], the inhibition at 1.7 µM was found to be 71.5%.

Turning to `Cc1c(NS(C)(=O)=O)cccc1N(Cc1ccccc1Br)C(C#N)c1ccccc1` (stereo not drawn) [Example 37, N-(3-{(2-bromobenzyl)[cyano(phenyl)methyl]amino}-2-methylphenyl)methanesulfonamide], the inhibition at 1.7 µM was 72.5%.

On to `C=Cc1c(NS(C)(=O)=O)cccc1N(Cc1ccccc1)Cc1ccccc1` [Example 44, N-[3-(dibenzylamino)-2-vinylphenyl]methanesulfonamide], for which the inhibition at 1.7 µM was 89.2%.

Consider `CCOC(=O)CCNC(=O)c1ccc(Oc2ccc(CN(Cc3ccc(F)cc3F)c3cccc(NS(C)(=O)=O)c3C)cc2)cc1` [Example 68, ethyl N-(4-{4-[((2,4-difluorobenzyl){2-methyl-3-[(methylsulfonyl)amino]phenyl}amino)methyl]phenoxy}benzoyl)-beta-alaninate], for which the inhibition at 1.7 µM came to 90.4%.

In the case of `Cc1c(NS(C)(=O)=O)cccc1N(Cc1ccc(Oc2ccc(CCCC(=O)O)cc2)cc1)Cc1ccc(F)cc1F` [Example 74, 4-(4-{4-[((2,4-difluorobenzyl){2-methyl-3-[(methylsulfonyl)amino]phenyl}amino)methyl]phenoxy}phenyl)butanoic acid], the inhibition at 1.7 µM was 97.2%.

For `COC(=O)NCCOc1cccc(Oc2ccc(CN(Cc3ccccc3)c3cccc(NS(C)(=O)=O)c3C)cc2)c1` [Example 82, methyl 2-(3-{4-[(benzyl{2-methyl-3-[(methylsulfonyl)amino]phenyl}amino)methyl]phenoxy}phenoxy)ethylcarbamate], the inhibition at 1.7 µM was 96.9%.

In the case of `Cc1c(NS(C)(=O)=O)cccc1N(Cc1ccccc1)Cc1ccc(Oc2ccc(CCC(=O)OCc3ccccc3)cc2)cc1` [Example 98, benzyl 3-(4-{4-[(benzyl{2-methyl-3-[(methylsulfonyl)amino]phenyl}amino)methyl]phenoxy}phenyl)propanoate], the inhibition at 1.7 µM worked out at 87.4%.

With `Cc1c(NS(C)(=O)=O)cccc1N(Cc1ccccc1)Cc1ccc(Oc2cccc(OC3CCOC3=O)c2)cc1` (stereo not drawn) [Example 112, N-{3-[benzyl(4-{3-[(2-oxotetrahydrofuran-3-yl)oxy]phenoxy}benzyl)amino]-2-methylphenyl}methanesulfonamide], the inhibition at 1.7 µM stood at 96.9%.

As for `Cc1c(NS(C)(=O)=O)cccc1N(Cc1ccccc1)Cc1ccc(Oc2cccc(OC(CCO)C(=O)O)c2)cc1` (stereo not drawn) [Example 113, 2-(3-{4-[(benzyl{2-methyl-3-[(methylsulfonyl)amino]phenyl}amino)methyl]phenoxy}phenoxy)-4-hydroxybutanoic acid], the inhibition at 1.7 µM is 96.4%.

For `Cc1c(NS(C)(=O)=O)cccc1N(Cc1ccccc1)Cc1ccc(Oc2cccc(OCCCCC(=O)O)c2)cc1` [Example 117, 5-(3-{4-[(benzyl{2-methyl-3-[(methylsulfonyl)amino]phenyl}amino)methyl]phenoxyl}phenoxy)pentanoic acid], the inhibition at 1.7 µM is 98.1%.

As for `CC(=O)c1cccc(Oc2ccc(CN(Cc3ccc(F)cc3F)c3cccc(NS(C)(=O)=O)c3C)cc2)c1` [Example 140, N-{3-[[4-(3-acetylphenoxy)benzyl](2,4-difluorobenzyl)amino]-2-methylphenyl}methanesulfonamide], the inhibition at 1.7 µM worked out at 88.1%.

On to `CCOc1ccc(CN(Cc2ccc(F)cc2F)c2cccc(NS(C)(=O)=O)c2C)cc1` [Example 142, N-{3-[(2,4-difluorobenzyl)(4-ethoxybenzyl)amino]-2-methylphenyl}methanesulfonamide], for which the inhibition at 1.7 µM is 90.4%.

For `Cc1c(NS(C)(=O)=O)cccc1N(Cc1ccccc1)Cc1ccc(-c2ccccc2C#N)cc1` [Example 146, N-(3-{benzyl[(2′-cyano-1,1′-biphenyl-4-yl)methyl]amino}-2-methylphenyl)methanesulfonamide], the inhibition at 1.7 µM was found to be 28.1%.

Turning to `Cc1c(NS(C)(=O)=O)cccc1N(Cc1ccc(OCc2ccc3c(c2)OCO3)cc1)Cc1ccc(F)cc1F` [Example 156, N-{3-[[4-(1,3-benzodioxol-5-ylmethoxy)benzyl](2,4-difluorobenzyl)amino]-2-methylphenyl}methanesulfonamide], the inhibition at 1.7 µM worked out at 94.9%.

`Cc1c(NS(C)(=O)=O)cccc1N(Cc1ccc(OCc2cc3c(cc2Cl)OCO3)cc1)Cc1ccc(F)cc1F` [Example 157, N-{3-[{4-[(6-chloro-1,3-benzodioxol-5-yl)methoxy]benzyl}(2,4-difluorobenzyl)amino]-2-methylphenyl}methanesulfonamide]: the inhibition at 1.7 µM was 91.8%.

For the molecule `Cc1c(NS(C)(=O)=O)cccc1N(Cc1ccc(OCCc2ccccc2)cc1)Cc1ccc(F)cc1F` [Example 158, N-(3-{(2,4-difluorobenzyl)[4-(2-phenylethoxy)benzyl]amino}-2-methylphenyl)methanesulfonamide], the inhibition at 1.7 µM is 93.1%.

Turning to `Cc1c(NS(C)(=O)=O)cccc1N(Cc1ccc(Oc2cccc(OC[C@@H]3C[C@@H](O)CC(=O)O3)c2)cc1)Cc1ccc(F)cc1F` [Example 231, N-(3-((2,4-difluorobenzyl)(4-(3-(((2S,4R)-6-oxo-4-hydroxytetrahydro-2H-pyran-2-yl)methoxy)phenoxy)benzyl)amino)-2-methylphenyl)methanesulfonamide], the inhibition at 1.7 µM was 96%.

Take `CCOC(=O)CCCOc1ccc(Oc2ccc(CN(Cc3ccccc3)c3cccc(NS(C)(=O)=O)c3C)cc2)cc1` [Example 232, ethyl 4-(4-{4-[(benzyl{2-methyl-3-[(methylsulfonyl)amino]phenyl}amino)methyl]phenoxy}phenoxy)butanoate]: the inhibition at 1.7 µM is 94.9%.

On to `Cc1c(NS(C)(=O)=O)cccc1N(Cc1ccccc1)Cc1ccc(Oc2ccc(OCCCC(=O)O)cc2)cc1` [Example 233, 4-(4-{4-[(benzyl{2-methyl-3-[(methylsulfonyl)amino]phenyl}amino)methyl]phenoxy}phenoxy)butanoic acid], for which the inhibition at 1.7 µM came to 96.8%.

For `Cc1c(NS(C)(=O)=O)cccc1N(Cc1ccccc1)Cc1ccc(Oc2ccc(OCCCCC(=O)O)cc2)cc1` [Example 234, 5-(4-{4-[(benzyl{2-methyl-3-[(methylsulfonyl)amino]phenyl}amino)methyl]phenoxy}phenoxy)pentanoic acid], the inhibition at 1.7 µM is 96.1%.
